From patent publication US20120101106A1, “Tetrahydronapthyridine Orexin Receptor Antagonists” (priority 2009, published 2012)

The compounds below were run against T1, OX2R (Homo sapiens, UniProt O43614) (assay: radioligand binding assay, membranes from CHO cells expressing the OX2 receptor). Settings: CHO cell membranes.
T1 construct: expressed in transfected cells; host or cells: CHO cells (membranes)
T1 sequence (O43614 1-444): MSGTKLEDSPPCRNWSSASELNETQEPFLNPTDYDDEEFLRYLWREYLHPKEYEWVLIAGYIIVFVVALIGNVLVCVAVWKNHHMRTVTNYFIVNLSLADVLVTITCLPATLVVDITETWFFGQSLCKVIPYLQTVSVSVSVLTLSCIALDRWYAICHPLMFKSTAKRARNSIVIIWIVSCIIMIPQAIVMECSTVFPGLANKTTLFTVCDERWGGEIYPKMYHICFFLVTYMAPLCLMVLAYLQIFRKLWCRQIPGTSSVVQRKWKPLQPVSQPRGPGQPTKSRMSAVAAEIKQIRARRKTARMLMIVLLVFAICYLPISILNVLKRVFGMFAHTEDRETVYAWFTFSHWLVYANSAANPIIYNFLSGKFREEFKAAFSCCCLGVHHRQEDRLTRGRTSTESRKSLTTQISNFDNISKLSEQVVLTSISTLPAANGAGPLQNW
Protocol: The utility of the compounds in accordance with the present invention as orexin receptor OX1R and/or OX2R antagonists may be readily determined without undue experimentation by methodology well known in the art, including the “FLIPR Ca^2+ Flux Assay” (Okumura et al., Biochem. Biophys. Res. Comm. 280:976-981, 2001). In a typical experiment the OX1 and OX2 receptor antagonistic activity of the compounds of the present invention was determined in accordance with the following experimental method. For intracellular calcium measurements, Chinese hamster ovary (CHO) cells expressing the rat orexin-1 receptor or the human orexin-2 receptor, are grown in Iscove's modified DMEM containing 2 mM L-glutamine, […], 1% hypoxanthine-thymidine supplement, 100 U/ml penicillin, 100 ug/ml streptomycin and 10% heat-inactivated fetal calf serum (FCS). The cells are seeded at 20,000 cells/well into Becton-Dickinson black 384-well clear bottom sterile plates coated with poly-D-lysine. All reagents were from GIBCO-Invitrogen Corp. The seeded plates are incubated overnight at 37° C. and 5% CO2. Ala-6,12 human orexin-A as the agonist is prepared as a 1 mM stock solution in 1% bovine serum albumin (BSA) and diluted in assay buffer (HBSS containing 20 mM HEPES, 0.1% BSA and 2.5 mM probenecid, pH7.4) for use in the assay at a final concentration of 70 pM. Test compounds are prepared as 10 mM stock solution in DMSO, then diluted in 384-well plates, first in DMSO, then assay buffer. On the day of the assay, cells are washed 3 times with 100 ul assay buffer and then incubated for 60 min (37° C., 5% CO2) in 60 ul assay buffer containing 1 uM Fluo-4AM ester, 0.02% pluronic acid, and 1% BSA. The dye loading solution is then aspirated and cells are washed 3 times with 100 ul assay buffer. 30 ul of that same buffer is left in each well. Within the Fluorescent Imaging Plate Reader (FLIPR, Molecular Devices), test compounds are added to the plate in a volume of 25 ul, incubated for 5 min and finally 25 ul of agonist is added. Fluorescence is measured for each well at 1 second intervals for 5 minutes and the height of each fluorescence peak is compared to the height of the fluorescence peak induced by 70 pM Ala-6,12 orexin-A with buffer in place of antagonist. For each antagonist, IC50 value (the concentration of compound needed to inhibit 50% of the agonist response) is determined. Alternatively, compound potency can be assessed by a radioligand binding assay (described in Bergman et. al. Bioorg. Med. Chem. Lett. 2008, 18, 1425-1430) in which the inhibition constant (Ki) is determined in membranes prepared from CHO cells expressing either the OX1 or OX2 receptor. The intrinsic orexin receptor antagonist activity of a compound which may be used in the present invention may be determined by these assays.

`CNC(=O)[C@@H](c1ccccc1)N1CCc2nc(OC)c(OC)cc2[C@@H]1CCc1ccc(C(F)(F)F)cc1` [Compound 1-6, (2R)-2-[(5S)-2,3-dimethoxy-5-{-2-[4-(trifluoromethyl)phenyl]ethyl}-7,8-dihydro-1,6-naphthyridin-6(5H)-yl]-N-methyl-2-phenylethanamide] and `CNC(=O)[C@@H](c1ccccc1)N1CCc2cc(OC)c(OC)nc2[C@@H]1CCc1ccc(C(F)(F)F)cc1` [Compound 1-10, (2R)-2-[(8S)-2,3-dimethoxy-8-{2-[4-(trifluoromethyl)phenyl]ethyl}-5,8-dihydro-1,7-naphthyridin-7(6H)-yl]-N-methyl-2-phenylethanamide] are within 1.5-fold of each other in Ki: 0.19 nM for the first, 0.17 nM for the second.

`CNC(=O)[C@@H](c1ccccc1)N1CCc2nc(OC)c(OC)cc2[C@@H]1CCc1ccc(Cl)cc1` [Compound 1-7, (2R)-2-[(5S)-5-[2-(4-chlorophenyl)-ethyl]-2,3-dimethoxy-7,8-dihydro-1,6-naphthyridin-6(5H)-yl]-N-methyl-2-phenylethanamide] and `CNC(=O)[C@@H](c1ccccc1)N1CCc2nc(OC)c(OC)cc2[C@@H]1CCc1ccc(C)cc1` [Compound 1-9, (2R)-2-[(5S)-2,3-dimethoxy-5-[2-(4-methylphenyl)ethyl]-7,8-dihydro-1,6-naphthyridin-6(5H)-yl]-N-methyl-2-phenylethanamide] are within 1.5-fold of each other in Ki: 0.26 nM for the first, 0.18 nM for the second.

Going from `CNC(=O)[C@@H](c1ccccc1)N1CCc2nc(OC)c(OC)cc2[C@@H]1CCc1ccc(F)cc1F` [Compound 1-8, (2R)-2-[(5S)-5-[2-(2,4-difluoro-phenyl)ethyl]-2,3-dimethoxy-7,8-dihydro-1,6-naphthyridin-6(5H)-yl]-N-methyl-2-phenylethanamide] to `CNC(=O)[C@@H](c1ccccc1)N1CCc2nc(OC)c(OC)nc2[C@@H]1CCc1ccc(C(F)(F)F)cc1` [Compound 1-11, (2R)-2-[(5S)-2,3-dimethoxy-5-{2-[4-(trifluoromethyl)phenyl]ethyl}-7,8-dihydropyrido[3,4-b]pyrazin-6(5H)-yl]-N-methyl-2-phenylethanamide], the Ki falls from 1 nM to 0.44 nM (2.3-fold). The second binds more tightly here.
